In paper PMC12300041, “Tricyclic Isatin Derivatives as Anti-Inflammatory Compounds with High Kinase Binding Affinity” (Molecules, 2025):

Tests used:
Assay in all cases: KINOMEscan
Type in all cases: binding
ABL1 (F317I)-P = biological target: T1, ABL1 (F317I)-P (Homo sapiens, UniProt P00519, F317I)
T1 construct: purchased Eurofins DiscoverX KINOMEscan
How it was run: (§1)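 1 h RT binding → immobilized-ligand capture of free kinase → qPCR quantitation. Kd: 12 half-log points, max 33 μM.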

ABL1 (T315I)-P = biological target: T2, ABL1 (T315I)-P (Homo sapiens, UniProt P00519, T315I)
T2 construct: purchased Eurofins DiscoverX KINOMEscan
How it was run: as §1

ACVR2A = biological target: T3, ACVR2A (Homo sapiens, UniProt P27037)
T3 construct: purchased Eurofins DiscoverX KINOMEscan
How it was run: as §1

AKT2 = biological target: T4, AKT2 (Homo sapiens, UniProt P31751)
T4 construct: purchased Eurofins DiscoverX KINOMEscan
How it was run: as §1

BMPR1B = biological target: T5, BMPR1B (Homo sapiens, UniProt O00238)
T5 construct: purchased Eurofins DiscoverX KINOMEscan
How it was run: as §1

BRSK1 = biological target: T6, BRSK1 (Homo sapiens, UniProt Q8TDC3)
T6 construct: purchased Eurofins DiscoverX KINOMEscan
How it was run: as §1

BTK = biological target: T7, BTK (Homo sapiens, UniProt Q06187)
T7 construct: purchased Eurofins DiscoverX KINOMEscan
T7 sequence (Q06187 whole entry): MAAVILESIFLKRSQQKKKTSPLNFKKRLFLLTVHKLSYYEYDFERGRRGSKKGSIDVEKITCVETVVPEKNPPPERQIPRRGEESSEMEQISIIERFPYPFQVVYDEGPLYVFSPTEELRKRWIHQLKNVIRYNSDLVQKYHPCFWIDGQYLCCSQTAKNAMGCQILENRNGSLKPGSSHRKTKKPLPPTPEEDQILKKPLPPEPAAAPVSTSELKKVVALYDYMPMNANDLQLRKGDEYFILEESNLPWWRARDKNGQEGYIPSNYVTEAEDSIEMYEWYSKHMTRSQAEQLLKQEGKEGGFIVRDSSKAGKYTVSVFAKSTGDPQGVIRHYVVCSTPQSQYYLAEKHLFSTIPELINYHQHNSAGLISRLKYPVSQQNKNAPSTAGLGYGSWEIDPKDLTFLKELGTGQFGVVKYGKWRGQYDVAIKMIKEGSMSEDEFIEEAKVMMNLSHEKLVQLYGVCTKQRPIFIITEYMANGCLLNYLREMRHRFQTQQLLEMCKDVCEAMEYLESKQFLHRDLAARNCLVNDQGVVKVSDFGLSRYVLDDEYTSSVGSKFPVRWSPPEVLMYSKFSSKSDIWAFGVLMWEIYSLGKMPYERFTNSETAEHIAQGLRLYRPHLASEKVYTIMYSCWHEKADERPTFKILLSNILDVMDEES
How it was run: as §1

CAMK2G = biological target: T8, CAMK2G (Homo sapiens, UniProt Q13555)
T8 construct: purchased Eurofins DiscoverX KINOMEscan
How it was run: as §1

CIT = biological target: T9, CIT (Homo sapiens, UniProt O14578)
T9 construct: purchased Eurofins DiscoverX KINOMEscan
How it was run: as §1

CLK4 = biological target: T10, CLK4 (Homo sapiens, UniProt Q9HAZ1)
T10 construct: purchased Eurofins DiscoverX KINOMEscan
How it was run: as §1

DDR2 = biological target: T11, DDR2 (Homo sapiens, UniProt Q16832)
T11 construct: purchased Eurofins DiscoverX KINOMEscan
T11 sequence (Q16832 22-855): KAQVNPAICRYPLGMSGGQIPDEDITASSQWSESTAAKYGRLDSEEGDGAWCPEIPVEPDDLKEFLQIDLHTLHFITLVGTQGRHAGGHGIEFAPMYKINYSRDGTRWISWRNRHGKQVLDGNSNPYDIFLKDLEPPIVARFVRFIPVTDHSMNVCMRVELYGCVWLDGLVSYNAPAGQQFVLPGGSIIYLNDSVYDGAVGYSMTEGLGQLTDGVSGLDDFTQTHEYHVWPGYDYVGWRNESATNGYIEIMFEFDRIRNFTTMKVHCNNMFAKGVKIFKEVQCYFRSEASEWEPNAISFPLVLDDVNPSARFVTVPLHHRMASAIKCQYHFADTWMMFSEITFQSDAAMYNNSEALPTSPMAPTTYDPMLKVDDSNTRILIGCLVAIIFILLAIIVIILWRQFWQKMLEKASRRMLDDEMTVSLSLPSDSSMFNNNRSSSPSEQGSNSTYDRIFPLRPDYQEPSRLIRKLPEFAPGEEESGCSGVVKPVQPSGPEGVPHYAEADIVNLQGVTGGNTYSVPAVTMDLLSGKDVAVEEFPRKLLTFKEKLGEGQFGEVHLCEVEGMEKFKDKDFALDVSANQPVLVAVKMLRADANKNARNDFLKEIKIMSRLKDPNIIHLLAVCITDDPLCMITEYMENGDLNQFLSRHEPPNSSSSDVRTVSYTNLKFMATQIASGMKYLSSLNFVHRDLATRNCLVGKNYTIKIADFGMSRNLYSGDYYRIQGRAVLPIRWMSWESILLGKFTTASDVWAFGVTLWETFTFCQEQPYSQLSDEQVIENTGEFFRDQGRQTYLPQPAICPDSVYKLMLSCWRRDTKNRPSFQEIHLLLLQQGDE
How it was run: as §1

DMPK2 = biological target: T12, DMPK2 (Homo sapiens, UniProt Q6DT37)
T12 construct: purchased Eurofins DiscoverX KINOMEscan
T12 sequence (Q6DT37 whole entry): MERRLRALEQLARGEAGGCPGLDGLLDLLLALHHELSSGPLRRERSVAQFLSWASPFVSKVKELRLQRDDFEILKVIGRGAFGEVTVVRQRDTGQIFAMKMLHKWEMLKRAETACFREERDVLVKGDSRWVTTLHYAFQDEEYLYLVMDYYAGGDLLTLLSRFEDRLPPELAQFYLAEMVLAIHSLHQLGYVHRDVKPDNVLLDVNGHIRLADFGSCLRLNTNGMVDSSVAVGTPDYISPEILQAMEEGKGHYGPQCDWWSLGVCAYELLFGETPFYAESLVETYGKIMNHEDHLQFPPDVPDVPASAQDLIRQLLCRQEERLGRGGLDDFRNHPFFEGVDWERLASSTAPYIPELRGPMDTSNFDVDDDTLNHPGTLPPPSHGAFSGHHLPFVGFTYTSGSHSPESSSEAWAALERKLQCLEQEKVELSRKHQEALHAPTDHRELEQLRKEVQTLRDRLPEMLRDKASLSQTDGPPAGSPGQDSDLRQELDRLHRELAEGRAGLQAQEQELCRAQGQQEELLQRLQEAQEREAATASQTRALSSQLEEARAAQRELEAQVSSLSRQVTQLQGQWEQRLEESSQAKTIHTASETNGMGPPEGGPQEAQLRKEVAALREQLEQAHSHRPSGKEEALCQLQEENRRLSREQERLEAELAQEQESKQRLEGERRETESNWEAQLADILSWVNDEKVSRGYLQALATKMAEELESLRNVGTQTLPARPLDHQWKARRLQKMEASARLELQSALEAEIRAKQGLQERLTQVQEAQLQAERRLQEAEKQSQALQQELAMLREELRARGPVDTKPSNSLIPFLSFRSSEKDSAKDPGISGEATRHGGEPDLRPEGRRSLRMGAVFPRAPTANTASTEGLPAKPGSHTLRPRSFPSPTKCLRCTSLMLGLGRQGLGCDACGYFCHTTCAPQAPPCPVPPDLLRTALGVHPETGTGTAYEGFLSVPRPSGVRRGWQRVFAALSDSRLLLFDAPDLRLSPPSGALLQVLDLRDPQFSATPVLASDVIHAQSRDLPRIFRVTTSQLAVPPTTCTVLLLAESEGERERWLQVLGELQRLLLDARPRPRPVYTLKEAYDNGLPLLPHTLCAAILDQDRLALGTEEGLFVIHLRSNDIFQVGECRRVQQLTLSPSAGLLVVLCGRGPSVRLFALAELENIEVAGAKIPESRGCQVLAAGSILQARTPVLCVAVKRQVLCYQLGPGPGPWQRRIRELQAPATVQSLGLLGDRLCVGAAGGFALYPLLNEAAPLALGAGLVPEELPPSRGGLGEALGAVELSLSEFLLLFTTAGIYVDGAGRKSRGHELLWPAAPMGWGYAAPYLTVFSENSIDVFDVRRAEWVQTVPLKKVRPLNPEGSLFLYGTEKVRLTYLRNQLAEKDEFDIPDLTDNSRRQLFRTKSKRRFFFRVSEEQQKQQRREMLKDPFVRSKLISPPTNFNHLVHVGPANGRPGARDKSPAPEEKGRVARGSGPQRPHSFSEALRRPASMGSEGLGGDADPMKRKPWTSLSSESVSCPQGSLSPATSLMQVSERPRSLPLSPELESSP
How it was run: as §1

FGFR1 = biological target: T13, FGFR1 (Homo sapiens, UniProt P11362)
T13 construct: purchased Eurofins DiscoverX KINOMEscan
How it was run: as §1

FLT3 (D835H) = biological target: T14, FLT3 (D835H) (Homo sapiens, UniProt P36888, D835H)
T14 construct: purchased Eurofins DiscoverX KINOMEscan
How it was run: as §1

FLT3 (K663Q) = biological target: T15, FLT3 (K663Q) (Homo sapiens, UniProt P36888, K663Q)
T15 construct: purchased Eurofins DiscoverX KINOMEscan
How it was run: as §1

HUNK = biological target: T16, HUNK (Homo sapiens, UniProt P57058)
T16 construct: purchased Eurofins DiscoverX KINOMEscan
How it was run: as §1

KIT (D816H) = biological target: T17, KIT (D816H) (Homo sapiens, UniProt P10721, D816H)
T17 construct: purchased Eurofins DiscoverX KINOMEscan
T17 sequence (P10721 26-976 D816H): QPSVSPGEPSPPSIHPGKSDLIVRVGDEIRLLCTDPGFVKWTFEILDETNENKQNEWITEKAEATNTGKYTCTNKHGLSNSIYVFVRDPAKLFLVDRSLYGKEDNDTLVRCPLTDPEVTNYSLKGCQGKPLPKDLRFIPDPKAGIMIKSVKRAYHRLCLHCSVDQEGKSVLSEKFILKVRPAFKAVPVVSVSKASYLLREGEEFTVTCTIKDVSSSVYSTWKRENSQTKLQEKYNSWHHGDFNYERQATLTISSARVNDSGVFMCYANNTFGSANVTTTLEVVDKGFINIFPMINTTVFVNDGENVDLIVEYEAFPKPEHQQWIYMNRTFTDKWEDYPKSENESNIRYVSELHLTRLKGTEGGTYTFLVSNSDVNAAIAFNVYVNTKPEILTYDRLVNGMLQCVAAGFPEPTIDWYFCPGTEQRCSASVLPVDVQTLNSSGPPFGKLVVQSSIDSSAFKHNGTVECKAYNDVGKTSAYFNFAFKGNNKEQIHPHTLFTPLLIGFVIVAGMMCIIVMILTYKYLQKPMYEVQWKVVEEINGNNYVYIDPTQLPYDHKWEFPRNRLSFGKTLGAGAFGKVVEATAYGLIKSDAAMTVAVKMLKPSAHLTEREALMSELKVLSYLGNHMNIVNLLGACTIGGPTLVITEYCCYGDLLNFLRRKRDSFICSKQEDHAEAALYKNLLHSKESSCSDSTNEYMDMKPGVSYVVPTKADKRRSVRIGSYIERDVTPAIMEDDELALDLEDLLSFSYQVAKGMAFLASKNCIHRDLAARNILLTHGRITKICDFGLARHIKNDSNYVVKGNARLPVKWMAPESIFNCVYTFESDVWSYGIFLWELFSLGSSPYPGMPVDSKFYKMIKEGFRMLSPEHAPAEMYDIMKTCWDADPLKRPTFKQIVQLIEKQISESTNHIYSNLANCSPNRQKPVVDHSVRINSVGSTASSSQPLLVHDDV
How it was run: as §1

LIMK1 = biological target: T18, LIMK1 (Homo sapiens, UniProt P53667)
T18 construct: purchased Eurofins DiscoverX KINOMEscan
How it was run: as §1

LKB1 = biological target: T19, LKB1 (Homo sapiens, UniProt Q15831)
T19 construct: purchased Eurofins DiscoverX KINOMEscan
How it was run: as §1

MAP4K2 = biological target: T20, MAP4K2 (Homo sapiens, UniProt Q12851)
T20 construct: purchased Eurofins DiscoverX KINOMEscan
How it was run: as §1

MAP4K4 = biological target: T21, MAP4K4 (Homo sapiens, UniProt O95819)
T21 construct: purchased Eurofins DiscoverX KINOMEscan
How it was run: as §1

MEK2 = biological target: T22, MEK2 (Homo sapiens, UniProt P36507)
T22 construct: purchased Eurofins DiscoverX KINOMEscan
T22 sequence (P36507 whole entry): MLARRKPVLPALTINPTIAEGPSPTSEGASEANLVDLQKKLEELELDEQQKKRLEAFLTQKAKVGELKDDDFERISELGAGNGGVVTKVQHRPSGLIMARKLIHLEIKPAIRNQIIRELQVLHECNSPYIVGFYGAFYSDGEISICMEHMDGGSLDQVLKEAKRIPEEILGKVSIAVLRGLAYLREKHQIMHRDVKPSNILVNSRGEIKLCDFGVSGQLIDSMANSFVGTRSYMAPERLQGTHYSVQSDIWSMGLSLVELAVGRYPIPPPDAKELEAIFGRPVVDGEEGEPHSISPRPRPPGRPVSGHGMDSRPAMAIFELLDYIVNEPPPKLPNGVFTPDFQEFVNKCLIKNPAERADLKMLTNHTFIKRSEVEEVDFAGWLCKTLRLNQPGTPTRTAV
How it was run: as §1

MEK6 = biological target: T23, MEK6 (Homo sapiens, UniProt P52564)
T23 construct: purchased Eurofins DiscoverX KINOMEscan
How it was run: as §1

MET = biological target: T24, MET (Homo sapiens, UniProt P08581)
T24 construct: purchased Eurofins DiscoverX KINOMEscan
How it was run: as §1

MLK2 = biological target: T25, MLK2 (Homo sapiens, UniProt Q02779)
T25 construct: purchased Eurofins DiscoverX KINOMEscan
How it was run: as §1

NEK4 = biological target: T26, NEK4 (Homo sapiens, UniProt P51957)
T26 construct: purchased Eurofins DiscoverX KINOMEscan
How it was run: as §1

PIK3C2G = biological target: T27, PIK3C2G (Homo sapiens, UniProt O75747)
T27 construct: purchased Eurofins DiscoverX KINOMEscan
How it was run: as §1

PIK3CA (H1047Y) = biological target: T28, PIK3CA (H1047Y) (Homo sapiens, UniProt P42336, H1047Y)
T28 construct: purchased Eurofins DiscoverX KINOMEscan
How it was run: as §1

PLK2 = biological target: T29, PLK2 (Homo sapiens, UniProt Q9NYY3)
T29 construct: purchased Eurofins DiscoverX KINOMEscan
How it was run: as §1

PRKD3 = biological target: T30, PRKD3 (Homo sapiens, UniProt O94806)
T30 construct: purchased Eurofins DiscoverX KINOMEscan
How it was run: as §1

ROCK2 = biological target: T31, ROCK2 (Homo sapiens, UniProt O75116)
T31 construct: purchased Eurofins DiscoverX KINOMEscan
How it was run: as §1

[1] = biological target: T32, RSK2 (Kin. Dom.2-C-term.) (Homo sapiens, UniProt P51812)
T32 construct: RSK2 (Kin. Dom.2-C-term.); purchased Eurofins DiscoverX KINOMEscan
T32 sequence (P51812 398-740 limits assumed): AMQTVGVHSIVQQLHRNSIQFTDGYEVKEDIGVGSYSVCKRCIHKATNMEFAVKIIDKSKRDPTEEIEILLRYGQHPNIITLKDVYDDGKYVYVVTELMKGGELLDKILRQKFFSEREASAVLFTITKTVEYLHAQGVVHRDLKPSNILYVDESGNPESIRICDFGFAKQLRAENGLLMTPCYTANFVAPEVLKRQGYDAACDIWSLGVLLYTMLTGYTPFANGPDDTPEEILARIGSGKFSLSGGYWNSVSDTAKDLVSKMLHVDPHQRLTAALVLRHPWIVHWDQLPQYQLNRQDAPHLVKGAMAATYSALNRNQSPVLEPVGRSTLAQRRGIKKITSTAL
How it was run: as §1

SGK2 = biological target: T33, SGK2 (Homo sapiens, UniProt Q9HBY8)
T33 construct: purchased Eurofins DiscoverX KINOMEscan
How it was run: as §1

TIE2 = biological target: T34, TIE2 (Homo sapiens, UniProt Q02763)
T34 construct: purchased Eurofins DiscoverX KINOMEscan
How it was run: as §1

TYK2 (JH1 domain-cat.) = biological target: T35, TYK2 (JH1 domain-cat.) (Homo sapiens, UniProt P29597)
T35 construct: TYK2 (JH1 domain-cat.); purchased Eurofins DiscoverX KINOMEscan
T35 sequence (P29597 888-1187 limits assumed): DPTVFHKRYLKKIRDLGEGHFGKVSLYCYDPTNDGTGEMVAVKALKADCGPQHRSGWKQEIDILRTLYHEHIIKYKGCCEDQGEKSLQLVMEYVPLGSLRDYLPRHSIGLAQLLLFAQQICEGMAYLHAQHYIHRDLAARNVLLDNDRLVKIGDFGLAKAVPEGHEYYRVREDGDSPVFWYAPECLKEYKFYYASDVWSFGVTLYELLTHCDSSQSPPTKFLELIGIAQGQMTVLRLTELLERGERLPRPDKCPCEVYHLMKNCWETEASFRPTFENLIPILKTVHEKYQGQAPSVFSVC
How it was run: as §1

VEGFR2 = biological target: T36, VEGFR2 (Homo sapiens, UniProt P35968)
T36 construct: purchased Eurofins DiscoverX KINOMEscan
How it was run: as §1

VRK2 = biological target: T37, VRK2 (Homo sapiens, UniProt Q86Y07)
T37 construct: purchased Eurofins DiscoverX KINOMEscan
How it was run: as §1

YSK1 = biological target: T38, YSK1 (Homo sapiens, UniProt O00506)
T38 construct: purchased Eurofins DiscoverX KINOMEscan
How it was run: as §1

Compound: O=C1Nc2c(cc([N+](=O)[O-])c3c2CCCC3)C1=NO [Compound 5d, 3-(Hydroxyimino)-5-nitro-1,3,6,7,8,9-hexahydro-2H-benzo[g]indol-2-one]
- inhibition at 10 µM (ABL1 (F317I)-P; first of two lines printed ABL1 (F317I)-P): 7%
- inhibition at 10 µM (ABL1 (F317I)-P; second of two lines printed ABL1 (F317I)-P): 0%
- inhibition at 10 µM (ABL1 (T315I)-P): 17%
- inhibition at 10 µM (ACVR2A): 10%
- inhibition at 10 µM (AKT2): 0%
- inhibition at 10 µM (BMPR1B): 19%
- inhibition at 10 µM (BRSK1): 36%
- inhibition at 10 µM (BTK): 39%
- inhibition at 10 µM (CAMK2G): 25%
- inhibition at 10 µM (CIT): 92.8%
- inhibition at 10 µM (CLK4): 93.9%
- inhibition at 10 µM (DDR2): 0%
- inhibition at 10 µM (DMPK2): 3%
- inhibition at 10 µM (FGFR1): 5%
- inhibition at 10 µM (FLT3 (D835H)): 35%
- inhibition at 10 µM (FLT3 (K663Q)): 5%
- inhibition at 10 µM (HUNK): 0%
- inhibition at 10 µM (KIT (D816H)): 1%
- inhibition at 10 µM (LIMK1): 0%
- inhibition at 10 µM (LKB1): 0%
- inhibition at 10 µM (MAP4K2): 53%
- inhibition at 10 µM (MAP4K4): 47%
- inhibition at 10 µM (MEK2): 87%
- inhibition at 10 µM (MEK6): 3%
- inhibition at 10 µM (MET): 63%
- inhibition at 10 µM (MLK2): 4%
- inhibition at 10 µM (NEK4): 1%
- inhibition at 10 µM (PIK3C2G): 43%
- inhibition at 10 µM (PIK3CA (H1047Y)): 36%
- inhibition at 10 µM (PLK2): 67%
- inhibition at 10 µM (PRKD3): 77%
- inhibition at 10 µM (ROCK2): 54%
- inhibition at 10 µM [1]: 0%
- inhibition at 10 µM (SGK2): 88%
- inhibition at 10 µM (TIE2): 21%
- inhibition at 10 µM (TYK2 (JH1 domain-cat.)): 90%
- inhibition at 10 µM (VEGFR2): 39%
- inhibition at 10 µM (VRK2): 0%
- inhibition at 10 µM (YSK1): 10%
